Entries after “also recorded” stand apart in the source; their conditions may differ.
How the values were obtained:
[1] = Toxicity in PyMT tumor-bearing FVB mice (body weight, ALT/AST, blood cell counts, small intestine); format: in vivo; settings: 15 mg/kg i.v.
Procedure: FIG. 12D, Body weight of the mice in experiment from FIG. 5B was measured. Vehicle, n=10 mice; C26-A6, n=12 mice.
FIG. 12E, Serum from mice in experiment in FIG. 5B were collected for ALT and AST activity measurement following the standard protocol (Sigma). Three FVB females treated with 200 μl of 8% CCl4 in corn oil for 2 days served as positive control. Data represent mean±SEM. n=5 mice per group. Significance determined by one-way ANOVA analysis with Dunnett's test for multiple comparisons.
FIG. 12F, Blood samples were drawn from the heart of mice in experiment FIG. 5B, and blood cell counts were performed with the Sysemx XN-3000 Hematology System (Sysmex America, Inc.) Data represent mean±SEM. Vehicle, n=6 mice; C26-A6, n=5 mice. Significance determined by two tailed Student's t-test.
FIG. 12G, Small intestine samples were obtained from mice in experiment from FIG. 5B. H&E and Alcian blue staining was performed on processed, sliced samples. Scale bar: 200 μm.
FIG. 12H, Quantification of Alcian blue staining results from (FIG. 12G). Data represent mean±SEM. n=12 fields from 5 mice in each group. Significance determined by two tailed Student's t-test.

[2] = Toxicity in 4TO7 metastasis-bearing mice (ALT/AST, blood cell counts, small intestine); format: in vivo
Procedure: FIG. 7E, Serum from mice in FIG. 7A were collected for ALT and AST activity measurement following the standard protocol (Sigma). Data represent mean±SEM. AST, n=8 replicates from 6 mice; ALT, n=9 replicates from 6 mice. Significance determined by one-way ANOVA analysis with Sidak's test for multiple comparisons.
FIG. 7F, Blood samples were drawn from the heart of mice in FIG. 7A, and blood cell counts were performed with the Sysemx XN-3000 Hematology System (Sysmex America, Inc.). Data represent mean±SEM. n=6 mice per group. Significance determined by one-way ANOVA analysis with Sidak's test for multiple comparisons.
FIG. 7G, Small intestine samples were obtained from mice in FIG. 7A. H&E and Alcian blue staining was performed on processed, sliced samples. Scale bar: 200 μm.
FIG. 7H, Quantification of Alcian blue staining results from FIG. 7G. Data represent mean±SEM. n=12 fields from 6 mice in each group. Significance determined by one-way ANOVA analysis with Sidak's test for multiple comparisons.

[3] = tested on: PyMT tumors with MTDH KO or SND1 KD; experiment: PyMT tumor models with MTDH KO or SND1 KD in FVB mice; format: in vivo, FVB female mice; settings: 6 weeks treatment
Procedure: FIG. 5G, 10 k of the cells of FIG. 5F were inoculated into FVB female mice and treated with or without C26-A6 after primary tumors reached to approximately 2 mm in diameter. 6 weeks after treatment, tumor size was determined. Vehicle, n=10 mice; C26-A6, n=10 mice.
FIG. 5H, 10 k of the cells of FIG. 5F were inoculated into FVB female mice and treated with or without C26-A6 after primary tumors reached to approximately 2 mm in diameter. 6 weeks after treatment, spontaneous lung metastasis was determined. The lung metastatic areas of the representative lungs were highlighted with red. Vehicle, n=10 mice; C26-A6, n=10 mice. Size bar, 5 mm.
FIG. 5J, 10 k of the cells of FIG. 5I were injected into FVB females and treated similarly as in FIGS. 5G, 5H. Tumor size was assessed. Vehicle, n=10 mice; C26-A6, n=10 mice.
FIG. 5K, 10 k of the cells of FIG. 5I were injected into FVB females and treated similarly as in FIGS. 5G, 5H. Lung metastasis was assessed. The lung metastatic areas of the representative lungs were highlighted with red. Vehicle, n=10 mice; C26-A6, n=10 mice. Size bar, 5 mm.
Next, to further validate that the anti-tumor effect of C26-A6 depends on its on-target effects by disrupting MTDH-SND1 complex, PyMT; UBC-Cre^ERT+/−;Mtdh^fl/fl tumor cells with Mtdh depletion or with endogenous Snd1 KD were employed for the similar assay as in FIG. 5-1a. […]

[4] = tested on: 4TO7 lung metastases; experiment: Established 4TO7 lung macrometastases; format: in vivo, Balb/C females
Procedure: For FIGS. 7A-7D, 2 k 4TO7 cells were injected into Balb/C females. 2 weeks after the injections, the mice were randomized based on lung metastasis that indicated by BLI, and were divided into four groups followed by vehicle, paclitaxel (Pac), and C26-A6 treatment alone or in combination. For Pac, the mice were treated with 20 mg/kg of Pac twice per week for the first two week and then once per week after that, For C26-A6, the mice were treated with 15 mg/kg of C26-A6 5 days per week. n=6 mice per group. Data represent mean±SEM.
FIG. 7A, Representative mice right before the treatment (week 2) and at week 10 are shown.
FIG. 7B, The BLI signal was quantified at week 2. Significance determined by one-way ANOVA analysis with Dunnett's test for multiple comparisons.
FIG. 7C, The metastasis progression of each individual is shown.
FIG. 7D, Survival rate in each group was analyzed. Significance determined by two-sided Log-rank test.
Lastly, to mimic the clinical scenario of adjuvant chemotherapy following surgical removal of the primary tumors, SCP28 mammary tumors were removed when they reached 5 mm in diameter, the mice were then randomly separated into four groups and subjected to the different treatment regimens as above. […] The mice were then treated with vehicle or paclitaxel and C26-A6 alone or in combination, and the metastasis progression was monitored by BLL.

With `COc1ccc(Cl)cc1S(=O)(=O)Nc1cccn2nc(C)nc12` [Analog C26-A6] the “hematologic, GI tract, and liver toxicity / tolerability” value [1] was “no significant hematologic, GI tract, and liver toxicity; also recorded: well-tolerated in vivo with minimal toxicity”, the tolerability ([2]; 15 mg/kg 5 days per week) was “well tolerated” and the “enhancement of chemotherapy toxicity” value ([2]; combined with paclitaxel) was “did not further enhance the chemotherapy toxicity”. For the same compound, the “tumor growth or metastasis” value [3] was “did not further inhibit tumor growth or metastasis”, the “metastatic growth (BLI)” value ([4]; Pac 20 mg/kg, C26-A6 15 mg/kg 5 days per week) was “slowed down metastatic growth” and the metastasis shrinkage ([4]; six mice per group) was “did not result in metastasis shrinkage”.

From US20240398767A1, “INHIBITORS OF THE MTDH-SND1 PROTEIN COMPLEX FOR CANCER THERAPY” (The Trustees of Princeton University, priority 2021, published 2024)
